In ChEMBL document CHEMBL1125390, “Design and synthesis of novel 6,7-imidazotetrahydroquinoline inhibitors of thymidylate synthase using iterative protein crystal structure analysis” (J Med Chem, 1992):

Columns and labels:
GC3M(-) [1] = assay: Compound was tested for the inhibition of thymidine kinase deficient human adenocarcinoma GC3M(-) cell growth
CCRF-CEM = assay: Compound was tested for the inhibition of human CCRF-CEM leukemia cell growth
Thymidylate synthase = Thymidylate synthase (Escherichia coli, UniProt C3SWJ7)
Description: Inhibition of Escherichia coli Thymidylate synthase (TS)

L1210 = assay: Compound was tested for the inhibition of mouse L1210 leukemia cell growth
GC3M(-) [2] = assay: Compound was evaluated for cellular growth inhibition in thymidine kinase deficient human adenocarcinoma GC3M(-) cell line

Chain of Thymidylate synthase (C3SWJ7 whole entry): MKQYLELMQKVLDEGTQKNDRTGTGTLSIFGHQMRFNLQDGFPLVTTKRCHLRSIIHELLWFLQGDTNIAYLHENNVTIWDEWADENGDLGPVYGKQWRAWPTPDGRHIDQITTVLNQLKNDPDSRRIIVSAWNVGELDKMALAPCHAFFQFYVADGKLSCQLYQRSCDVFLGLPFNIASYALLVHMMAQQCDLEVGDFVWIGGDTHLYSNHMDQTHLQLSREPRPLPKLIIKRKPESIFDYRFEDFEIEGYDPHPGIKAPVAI

Row | IC50 (CCRF-CEM) | Ki (Thymidylate synthase) | IC50 (L1210) | SMILES | IC50 (GC3M(-) [1]) | IC50 (GC3M(-) [2])
1 |  |  |  | Nc1nc2cc3c(cc2[nH]1)N(Cc1ccc(S(=O)(=O)c2ccccc2)cc1)CCC3 | > 5 µM | 
2 | 1.8 µM | 5.2 µM | 1.05 µM | COc1ccc(S(=O)(=O)c2ccc(CN3CCCc4cc5c(cc43)nc(C)n5C)cc2)cc1 | > 5 µM | 
3 | 0.9 µM | 0.5 µM | 0.5 µM | COc1ccc(S(=O)(=O)c2ccc(CN3CCCc4cc5c(cc43)nc(N)n5C)cc2)cc1 | 3 µM | 
4 | 5.1 µM |  | 2.6 µM | COc1ccc(S(=O)(=O)c2ccc(CN3CCCc4cc5[nH]c(N)nc5cc43)cc2)cc1 | 9 µM | 
5 | 8 µM | 1.3 µM | 2.8 µM | COc1ccc(S(=O)(=O)c2ccc(CN3CCCc4cc5nc(C)[nH]c5cc43)cc2)cc1 | 4.1 µM | 
6 | > 5 µM |  | 3.1 µM | Nc1nc2cc3c(cc2[nH]1)N(Cc1ccc2cc(CO)ccc2c1)CCC3 | > 5 µM | 
7 | 4 µM |  | 4 µM | Nc1nc2cc3c(cc2[nH]1)N(Cc1ccc(S(=O)(=O)N2CCOCC2)cc1)CCC3 | 8.6 µM | 
8 | 22 µM |  | 12 µM | Nc1nc2cc3c(cc2[nH]1)N(Cc1ccc(S(=O)(=O)c2ccc(O)cc2)cc1)CCC3 |  | > 50 µM
9 |  |  |  | O=S(=O)(c1ccc(CN2CCCc3cc4[nH]cnc4cc32)cc1)N1CCNCC1 | 43 µM | 
10 | 40 µM |  | 20 µM | Nc1nc2cc3c(cc2[nH]1)N(Cc1ccc(C(=O)NC(CCC(=O)O)C(=O)O)cc1)CCC3 (configuration not stated) |  | > 50 µM
11 |  |  | 2 µM | Nc1nc2cc3c(cc2[nH]1)N(Cc1ccc(S(=O)(=O)N2CCNCC2)cc1)CCC3 | > 50 µM | 
12 | > 10 µM |  | 7.5 µM | Nc1nc2cc3c(cc2[nH]1)CCCC3Sc1ccc(S(=O)(=O)c2ccccc2)cc1 (configuration not stated) | > 10 µM | 

Row | SMILES | IC50 (CCRF-CEM) | Ki (Thymidylate synthase) | IC50 (L1210) | IC50 (GC3M(-) [1]) | IC50 (GC3M(-) [2])
13 | CSc1nc2cc3c(cc2[nH]1)N(Cc1ccc(S(=O)(=O)c2ccccc2)cc1)CCC3 | > 10 µM | > 3 µM | > 10 µM | > 10 µM | 
14 | CNc1nc2cc3c(cc2[nH]1)N(Cc1ccc(S(=O)(=O)c2ccccc2)cc1)CCC3 | 3.3 µM | 8.5 µM | 3 µM | > 5 µM | 
